Results taken from patent US20020064790A1, “Design of drugs involving receptor-ligand-DNA interactions” (priority 1993, published 2002).
“Also recorded” adds a separate entry of the source. Counter-ions that a name gives are not always drawn. Like-named read-outs stand apart in the source and are kept apart here.

Columns and labels:
[1] = tested on: various animal and human tumor cells; experiment: Growth inhibition in various animal and human tumor cells; type: cell-based
Method: (§1) These synthetic derivatives were assessed for biological potency by measuring their growth inhibitory effects on various cell lines using concentrations of […] based on the reported IC50 of 3-phenylacetylamino-2,6 piperidinedione in Nb2 cells.
3-Phenylacetylamino-2,6-piperidinedione (A10) is a modified amino-acid derivative, which was originally isolated from freeze-dried human urine. […] The focus of the following study was to develop more- potent analogs. […] It was observed that placing a hydroxyl group at the para position of the phenyl group of A10 would enable a second hydrogen bond to form thereby substantially enhancing fit as reported by Hendry et al., J. Steroid Biochem. Molec. Biol. 48:495-505 (1994), the teachings of which are hereby incorporated by reference in their entirety.

[2] = tested on: uterotropic (estrogenic) activity; experiment: Uterotropic (estrogenic) activity in vivo
androgenic activity = conditions: published findings by Hilgar and Hummel; cited from earlier work
[3] = tested on: uterotropic (estrogenic) activity; conditions: relative to estradiol, Peters et al.; cited from earlier work
estrogen receptor [4] = target: T1, estrogen receptor (Homo sapiens, UniProt P03372); conditions: cited from earlier work
T1 sequence (P03372 1-595): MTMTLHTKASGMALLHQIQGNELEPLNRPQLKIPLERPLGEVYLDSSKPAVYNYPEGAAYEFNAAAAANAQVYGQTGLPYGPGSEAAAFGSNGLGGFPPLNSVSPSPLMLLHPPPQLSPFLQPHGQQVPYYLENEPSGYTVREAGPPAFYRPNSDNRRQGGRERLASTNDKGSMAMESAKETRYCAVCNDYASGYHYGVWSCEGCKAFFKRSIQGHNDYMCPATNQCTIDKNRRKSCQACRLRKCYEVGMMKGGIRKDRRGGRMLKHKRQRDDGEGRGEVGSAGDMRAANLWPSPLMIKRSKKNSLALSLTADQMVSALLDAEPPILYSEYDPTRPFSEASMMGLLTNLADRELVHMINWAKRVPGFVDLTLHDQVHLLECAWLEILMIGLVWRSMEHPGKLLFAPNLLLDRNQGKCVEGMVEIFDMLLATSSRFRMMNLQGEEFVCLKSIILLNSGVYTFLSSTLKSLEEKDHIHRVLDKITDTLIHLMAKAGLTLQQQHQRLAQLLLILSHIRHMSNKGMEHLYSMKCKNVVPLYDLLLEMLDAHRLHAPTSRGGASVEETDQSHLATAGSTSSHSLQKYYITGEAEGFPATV

[5] = tested on: MCF-7 human breast cancer cells; experiment: MCF-7 cell growth (cell number) with SGI compounds; type: cell-based; conditions: dose 10^−8 M; control 252,197 cells
Nb2 lymphoma cells = experiment: DNA synthesis measured by thymidine incorporation; type: cell-based, rat
Source text: (§2) The mode of action of these piperidinediones is still not proven. […] At the same time, direct binding of such anti-estrogens to DNA appears to be weak. Taken as a whole, these findings support the possibility of a weak interaction of the piperidinediones with both DNA and the estrogen receptor, involving a receptor mediated insertion of the ligand into DNA.

[6] = tested on: MCF-7 (E-3) human breast cancer cells; experiment: Inhibition of estrogen stimulated growth of MCF-7 (E-3) cells, 9 day model; type: cell-based; conditions: for IC50: MCF-7 (E-3), estrogen stimulated growth, 9 day model; for inhibition of estrogen stimulated cell growth: MCF-7 (E-3) cells
estrogen receptor [7] = target: T1, estrogen receptor; experiment: Estrogen receptor binding
DNA = experiment: Binding of piperidinedione to DNA
Source text: as §2

rat Nb2 lymphoma cells = experiment: Inhibition of prolactin stimulated growth of Nb2 lymphoma cells; type: cell-based
[8] = tested on: human leukemia (K652) cells; experiment: Growth inhibition in human leukemia K562 cells; type: cell-based
YAK lymphoma cells = experiment: Growth inhibition in YAK lymphoma cells; type: cell-based; conditions: rank among derivatives
Method: as §1

Compound: O=C1CCC(NC(=O)Cc2ccc(F)cc2)C(=O)N1 (stereo not drawn) [p-fluoro derivative]
- potency in tumor cell growth inhibition relative to A10 [1]: lack of increased potency

Compound: CC(=O)O[C@H]1C[C@]2(C)[C@@H](O)CC[C@H]2[C@@H]2CCc3cc(O)ccc3[C@H]21 [11β-acetoxyestradiol]
- estrogenic (uterotropic) activity in vivo [2]: more active than estradiol

Compound: C[C@]12CCC(=O)C[C@@H]1CC[C@@H]1[C@@H]2CC[C@]2(C)[C@@H](O)CC[C@@H]12 [5β-dihydrotestosterone]
- androgenic activity (androgenic activity): essentially inactive

Compound: C[C@]12CC[C@H]3c4ccc(O)cc4CC[C@H]3[C@@H]1CC[C@@H]2O [9β-estradiol]
- estrogenic (uterotropic) activity in vivo [2]: inactive; also recorded: little uterotropic activity

Compound: C[C@@H]1Cc2cc(O)ccc2[C@@H]2[C@@H]1[C@@H]1CC[C@H](O)[C@@]1(C)C[C@@H]2O[N+](=O)[O-] [7α-methylestradiol-11β-nitrate ester, 3,11β, 17β-trihydroxy-7α-methylestra-1,3, 5 (10)-triene 11-nitrate ester]
- uterotropic activity [3]: considerably greater than that of estradiol
- binding to the estrogen receptor relative to estradiol (estrogen receptor [4]): less than 6 % of the binding of estradiol

Compound: CC/C(=C(\c1ccccc1)c1ccc(OCCN(C)C)cc1)c1ccccc1 [tamoxifen citrate]
- number of MCF-7 cells [5]: 187,759 cells

Compound: O=C1CCC(NC(=O)Cc2ccccc2)C(=O)N1 (stereo not drawn) [3-phenylacetylamino-2,6-piperidinedione]
- DNA synthesis measured by thymidine incorporation (Nb2 lymphoma cells): significantly inhibited
- IC50 ([6]; Homo sapiens, MCF7, 216 h): 3000 µM
- inhibition of estrogen stimulated cell growth [6]: inhibited
- binding for the estrogen receptor (estrogen receptor [7]): neither 3-phenylacetylamino-2,6-piperidinedione nor phydroxy-3-phenylacetylamino-2,6-piperidinedione exhibited appreciable binding
- covalent adducts with DNA (DNA): No covalent adducts
- binding to DNA (DNA; in comparison to classical intercalating drugs): weak and reversible

Compound: C[C@]12CCC(=O)C[C@@H]1CC[C@@H]1[C@@H]2CC[C@]2(C)[C@@H](O)CC[C@@H]12 [5α-dihydrotestosterone]
- androgenic activity (androgenic activity): highly active androgen

Compound: p-hydroxy-3-phenylacetylamino-2,6-piperidinedione
- inhibition of estrogen stimulated cell growth [6]: inhibited
- IC50 [6]: 7 µM
- growth inhibition over concentration range (rat Nb2 lymphoma cells; Nb2 lymphoma cells, 10^−4 M to 10^−3 M): more active in Nb2 lymphoma cells than 3-phenylacetylamino-2,6 piperidinedione
- inhibition of prolactin stimulated growth (rat Nb2 lymphoma cells; rat Nb2 lymphoma cells): greatest activity
- binding for the estrogen receptor (estrogen receptor [7]): neither 3-phenylacetylamino-2,6-piperidinedione nor phydroxy-3-phenylacetylamino-2,6-piperidinedione exhibited appreciable binding
- dose response comparison of growth inhibition ([8]; 10^−5 to 10^−2 M): more active than the unsubstituted compound
- growth inhibitory effect ([8]; rank among analogs): most active analog
- growth inhibitory effect (YAK lymphoma cells): most active derivative
- potency in tumor cell growth inhibition relative to A10 [1]: most potent compound
- potency in tumor cell growth inhibition relative to A10 ([1]; listed as p-OH-A10): as much as an order of magnitude more active than A10
